Read-outs that look alike come from different tables or passages of the source.
Experiments:
[1] = tested on: P. falciparum (Cam3.II-rev) schizont stage; experiment: 3 h drug pulse viability assay; assay type: cell-based, Plasmodium falciparum; conditions: Plasmodium falciparum, 3 h, read-out: IC50 (Viability)
Description: (§1) 553 Sigma-Aldrich) for 48-72 h. For drug pulse assays, tightly synchronized parasites (1-1.5% parasitemia,
(§2) 554 0.2% final hematocrit) were added to the plates and incubated for 3 h. Drugs were removed and the
(§3) 555 parasitemia assessed in the trophozoite stage of the next cycle.
(§4) 557 Compounds were tested against a range of drug resistant field isolates and laboratory strains using a
(§5) 558 modified [3H]-hypoxanthine incorporation assay, as previously reported (46). Field isolates 7G8, Cam3.1,
(§6) 559 Dd2, K1, TM90C2B and NF54 were obtained from MR4 (www.beiresources.org).
(§7) 561 Mammalian cell culture experiments
(§8) 562 The HepG2 (Human hepatocyte carcinoma) cell line was procured from ATCC (American Type
(§9) 563 Culture Collection, Manassas, USA; HB-8065) and viability assessed using Cell Titer-GLO luminescent
(§10) 564 cell viability assay reagents (Promega, catalogue number: G7570) (47, 48). For the assay, 2000 cells/well
(§11) 565 were plated in 384-well plates 24 h prior to the experiment and incubated at 37°C in a CO2 incubator. The
(§12) 566 medium was removed and cells were treated with fresh medium containing either vehicle (0.5% DMSO)
(§13) 567 or serially diluted test compounds or doxorubicin (1.3 nM to 25 µM) in a final volume of 50 µl/well and
(§14) 568 further incubated for 72 h at 37°C in a CO2 incubator.
(§15) 569 were treated with 5 µl of 1% Triton X-100 (final assay conc. 0.1%). Following incubation, 25 µl of medium
(§16) 570 was discarded and 25 µl of Cell Titer-GLO reagent was added to each well and the plate was kept on a plate
(§17) 571 shaker for 15 min at 25°C with shaking at 300 rpm. Luminescence signals were measured in a Spectramax
(§18) 572 M5 reader (Molecular Devices).
(§19) 574 H1650 is a human lung cancer derived ATG7-null cell line (49) that can be used to assess effects on targets
(§20) 576 adenocarcinoma; bronchoalveolar carcinoma). Other cells lines used are: H460 (NCI-H460; human lung;
(§21) 577 carcinoma; large cell lung cancer; ATCC: HTB-177); and HCT116 (human colon; colorectal carcinoma;
578 ATCC: CCL-247; Lot : 5056139). […]
580 inhibitors and cell viability was assessed by comparing the ATP content in compound-treated wells with […]

P. falciparum (3D7) = P. falciparum (3D7) culture growth inhibition, 72 h; assay type: cell-based, Plasmodium falciparum; conditions: for IC50: Plasmodium falciparum
Description: (1 picture or pasted object on this page, not shown here)
as §1, §2, §3, §4, §5, §6, §7, §8, §9, §10, §11, §12, §13, §14, §15, §16, §17, §18, §19, §20, §21
578 ATCC: CCL-247; Lot : 5056139). Each of the cell lines was received from the American Type Culture
579 Collection (ATCC) and passaged twice before freezing. Cells were cultured in the presence or absence of
580 inhibitors and cell viability was assessed by comparing the ATP content in compound-treated wells with
581 that in DMSO-treated wells as previously described (11).
583 HeLa cells (human cervical adenocarcinoma; genome sequenced (Garvin Institute, Australia) and verified

For `Nc1ncnc2c1c(OC(F)F)nn2[C@@H]1O[C@H](COS(N)(=O)=O)[C@@H](O)[C@H]1O` [ML901], the IC50 [1] was 56 nM, the “higher selectivity than AMS” value (P. falciparum (3D7); P. falciparum versus mammalian cell lines, compared with AMS) was > 1,000 fold and the IC50 (P. falciparum (3D7); read-out: Pf3D7 IC50(72h), P. falciparum 3D7, 72 h) was 2 ± 0.1 nM. The IC50 (P. falciparum (3D7); 3D7 parent of the in vitro evolution experiment, 72 h, read-out: IC50 (3D7)) was 1.9 ± 0.1 nM and the “selectivity towards P. falciparum” value (P. falciparum (3D7); versus different mammalian cell lines) was 800- to 5,000 fold.

Source: publication PMC7613620, “Reaction hijacking of tyrosine tRNA synthetase as a whole-of-life-cycle antimalarial strategy” (Science (New York, N.Y.), 2022)
